Data taken from PubChem BioAssay (NCI).
Several values for one entry are separate records, joined by “and”; a condition that tells them apart may be missing. Equal values may be shown once.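 Following 48 hours of exposure in 96-well plates, responses at five concentrations were used to interpolate endpoints linearly. GI50: concentration for 50% inhibition of growth. TGI: concentration producing complete growth inhibition.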

Tests used:
Assay in all cases: NCI tumour cell line growth inhibition, 48 h
MDA-N = tested on: MDA-N
DMS 273 small cell lung = tested on: DMS 273 small cell lung
DLD-1 colon = tested on: DLD-1 colon
XF 498 CNS = tested on: XF 498 CNS
KM20L2 colon = tested on: KM20L2 colon
HOP-18 NSCLC = tested on: HOP-18 NSCLC
M19-MEL melanoma = tested on: M19-MEL melanoma
RXF-631 renal = tested on: RXF-631 renal
P388 leukemia = tested on: P388 leukemia
SN12K1 renal = tested on: SN12K1 renal
P388/ADR leukemia = tested on: P388/ADR leukemia

Compound	TGI (DMS 273 small cell lung)	TGI (DLD-1 colon)	TGI (XF 498 CNS)	TGI (KM20L2 colon)	TGI (HOP-18 NSCLC)	TGI (M19-MEL melanoma)	TGI (RXF-631 renal)	also measured
OCC1OC(n2cnc3c2NC=NC[C@H]3O)C(Cl)C1O (stereo not given in full)								TGI (MDA-N): > 100 µM
CCOC(=O)C1SC(=Nc2ccc(C)c(C)c2)N=C1C (stereo not given)	> 100 µM	> 100 µM	> 100 µM	> 100 µM	> 100 µM	> 100 µM		
CCOC(=O)N[C@@H]1C(CC(=O)OC)O[C@H]2OC(C)(C)O[C@H]21 (stereo not given in full)	> 100 µM	> 100 µM	> 100 µM	> 100 µM	> 100 µM	> 100 µM	> 100 µM	
COc1ccc(CN2CC(C)(C)C2=O)c(OC)c1	> 100 µM		> 100 µM	> 100 µM	> 100 µM	> 100 µM	> 100 µM	
Clc1cc(Cl)c2ns[s+]c2c1Cl	> 100 µM	> 100 µM	> 100 µM	> 100 µM	> 100 µM	> 100 µM		
CCc1nc(N)nc(N)c1-c1ccc(NC)c([N+](=O)[O-])c1								TGI (MDA-N): > 100 µM
CCOC(=O)/C(C)=C(/O)C(=O)OCC	> 100 µM	> 100 µM	> 100 µM		> 100 µM		> 100 µM	
COc1cc2[nH]c3c(c2cc1OC)CCN[C@]31CC[C@]2(CC3c4c(cc(OC)c(O)c42)CCN3C)C[C@H]1OC (stereo not given in full)	4.46 µM	81 µM	29.8 µM	60.5 µM	46.7 µM	32.9 µM	25.7 µM	
CC1=C(/C=C/Cl)CC(Cl)C(C)(Cl)C1 (stereo not given)								TGI (MDA-N): > 100 µM
COc1cc(/C=C/c2ccc(OC)c(O)c2)cc(OC)c1	34.1 µM	24.7 µM	9.52 µM	47.5 µM		30.9 µM		
COc1cc(Cc2nccc3cc(OC)c(OC)cc23)c(C(C)=O)cc1OC	300 µM and > 750 µM	169 µM and 351 µM	300 µM	200 µM and > 750 µM	> 300 µM and 252 µM	223 µM and > 750 µM	> 750 µM	TGI (P388 leukemia): 119 µM; GI50 (DMS 273 small cell lung): > 750 µM; GI50 (DLD-1 colon): 118 µM; GI50 (KM20L2 colon): > 750 µM; TGI (SN12K1 renal): 300 µM; TGI (P388/ADR leukemia): 30 µM; GI50 (HOP-18 NSCLC): 115 µM; GI50 (M19-MEL melanoma): > 750 µM
[N-]=[N+]=C1C(=O)NN=C1c1ccccc1	> 100 µM	> 100 µM	> 100 µM	> 100 µM		> 100 µM	> 100 µM	
Cc1cc2nc(C=C(C(F)(F)F)C(F)(F)F)oc2cc1C								TGI (MDA-N): > 10 µM
CC1=CC(C)(C)N=C2SC(c3ccc(N)cc3)=NN12	> 61.2 µM	> 68.9 µM	> 100 µM	> 100 µM	> 100 µM	> 100 µM	> 100 µM	
CC1=[N+]([O-])c2ccccc2C(=O)C1=O	> 100 µM	> 100 µM	> 100 µM	> 100 µM	> 100 µM	> 100 µM		
COC(=O)C12CC3CC(CC(C(=O)O)(C3)C1)C2	> 100 µM		> 100 µM	> 100 µM	> 100 µM	> 100 µM	> 100 µM	
O=C(CCc1nc(=S)[nH][nH]1)Nc1ccccc1Cl	> 100 µM	> 100 µM	> 100 µM	> 100 µM	> 100 µM	> 100 µM		
CCCC1=C(CC)C(C(=O)Nc2c(C)cccc2C)=NC(S)N1 (stereo not given)	> 100 µM	> 100 µM	> 100 µM	> 100 µM	> 100 µM	> 100 µM		
CNC(=S)/N=C(\N)N(C)C	> 100 µM	> 100 µM	> 100 µM	> 100 µM	> 100 µM	> 100 µM		
CN1CCc2nc(N)nc(-c3nc(N)nc4c3CN(C)CC4)c2C1								TGI (MDA-N): > 100 µM
O=C(c1cccc2ccccc12)N1CCC(C2CCN(C(=O)c3cccc4ccccc34)CC2)CC1	> 100 µM	> 100 µM	> 100 µM	> 100 µM	> 100 µM	> 100 µM	> 100 µM	

Compound	TGI (DMS 273 small cell lung)	TGI (DLD-1 colon)	TGI (XF 498 CNS)	TGI (KM20L2 colon)	TGI (HOP-18 NSCLC)	TGI (M19-MEL melanoma)	TGI (RXF-631 renal)	also measured
c1ccc(C2N3CCCCC3[C@@H]3c4[nH]c5ccccc5c4CCN23)nc1 (stereo not given in full)	> 100 µM	> 100 µM		> 100 µM	> 100 µM	> 100 µM	> 100 µM	
CN(C)CCNc1ccc(CO)c2oc3ccc(O)cc3c(=O)c12								TGI (MDA-N): 25.7 µM
Nc1ccccc1/C(O)=C1/CCOC1=O		> 100 µM	> 100 µM			> 100 µM		
O=C1C2C3C=C4c5ccccc5N(c5ccccc5)C4(C2C(=O)N1c1ccc([N+](=O)[O-])cc1)[C@H]1C(=O)N(c2ccc([N+](=O)[O-])cc2)C(=O)[C@@H]31 (stereo not given in full)	> 100 µM	> 100 µM		> 100 µM	> 100 µM	> 100 µM		
COc1ccc2c3c([nH]c2c1[N+](=O)[O-])C(C)N(C)CC3 (stereo not given)	> 100 µM	> 100 µM	> 100 µM	> 100 µM	84.9 µM	> 100 µM		
CCOC(=O)CCC(=O)C1c2cccc(O)c2C(=O)c2c(O)cc(C)cc21 (stereo not given)	2.13 µM	3.58 µM	0.52 µM	3.51 µM	1.33 µM	1.31 µM	1.65 µM	
CCCN(CCC)C(=O)c1c([N+](=O)[O-])cc(C(F)(F)F)cc1[N+](=O)[O-]	> 100 µM			53.7 µM		27 µM		
Cc1[nH]c(=O)nc2[nH][nH]c(=O)c12					> 100 µM	> 100 µM		
COc1ccc(-c2cc(-c3cc(C)cc(Br)c3O)no2)cc1								TGI (MDA-N): > 100 µM
CN(C)CCC1(C2=CCCC2)CC/C(=C\c2ccc(Cl)cc2)C1=O (stereo not given)	24.8 µM	20.6 µM	19.1 µM	7.82 µM	24.8 µM	13.3 µM	25.4 µM	
COC(=O)[C@@]12C(=O)C=CC(=O)C1C1C(=CC2C)OC2OC3(CCCCC3)OC21 (stereo not given in full)	36.2 µM	35.7 µM		38.4 µM	34.6 µM	35.1 µM		
Cn1cc(C2(C)CC(C)(C)c3c2n(C)c2ccccc32)c2ccccc21 (stereo not given)	> 100 µM	> 100 µM	> 100 µM	> 100 µM		> 100 µM		
CCCCNC1CCCCC[C@H]1O (stereo not given in full)	> 100 µM	> 100 µM		> 100 µM	> 100 µM	> 100 µM		
COC(=O)C(CC(=O)Nc1ccc(C)cc1)C(=O)C(=O)Nc1c(C(C)C)cccc1C(C)C (stereo not given)		> 100 µM	> 100 µM	> 100 µM		> 100 µM	> 100 µM	
COc1ccc(C2=C(Cl)c3cc(OC)c(OC)cc3C2Cl)cc1 (stereo not given)	39.5 µM			30.5 µM	53.5 µM	35.8 µM		TGI (MDA-N): 22.8 µM
COc1c2c(cc3c1OCO3)[C@]13C=C[C@H](OC)C[C@H]1N(C2)CC3O (stereo not given in full)								TGI (MDA-N): > 100 µM
CCCCCCCCCCCCCCCC(=O)OCC(C[As](=O)(O)O)OC(=O)CCCCCCCCCCCCCCC (stereo not given)	> 100 µM	> 100 µM	70.9 µM	> 100 µM	> 100 µM	> 100 µM	> 100 µM	TGI (MDA-N): > 100 µM
O=C1c2cccnc2-c2nc(-c3ccc(Cl)cc3)cc3c2c1nc1ccccc13								GI50 (MDA-N): 40 µM; TGI (MDA-N): > 100 µM
CN(Cc1ccccc1)C(=O)c1ccccc1C(=O)O	> 100 µM	> 100 µM	> 100 µM	> 100 µM		> 100 µM	> 100 µM	
c1cnn(CN(Cn2cccn2)Cn2cccn2)c1	> 100 µM	> 100 µM	> 100 µM	> 100 µM		> 100 µM		
